Source: patent US4219657A, “Dibenzothiophenes” (Hoffmann-La Roche Inc., priority 1977, dated 1980)

How the values were obtained:
[1] = test system: Albino rats of Hart Strain; assay: anti-inflammatory activity, volume of edema after Mycobacterium butyricum adjuvant injected into the right hind foot; type: in vivo; settings: Rattus norvegicus, po, dosage of 0.03 gm. p.o., treated daily for 5 consecutive days, edema 96 hours after adjuvant, read-out: ED30 (dose required to produce a 30% reduction in edema)
Procedure: The test animals are given 10 mls. of vehicle^1, which contains the test compound per kg. of body weight. The animals are treated daily for 5 consecutive days. Three hours after the first treatment, 0.05 ml. of an 0.5% suspension of heat killed dessiccated Mycobacterium butyricum in U.S.P. olive oil, which has been steam sterilized for 30 minutes, is injected into the right hind foot of each rat. The paw volume is measured immediately after the injection of the adjuvant and again 96 hours later. The difference is recorded as volume of edema. The paw volume is measured by immersion of the paw into a column of mercury to an ink mark exactly at the level of the lateral malleolus. Percent inhibition is calculated by dividing the average control edema minus the average treatment edema by the average control edema times 100. The percent inhibition is plotted against dose on semi-logarithmic probability paper and the dose required to produce a 30% reduction in edema is estimated therefrom and is expressed as ED30.
^1 Hilgar, A. G. and Hummel, D. J.: Endocrine Bioassay Data. No. 1, p. 15, August 1964 (Cancer Chemotherapy National Service Center, N.I.H.)

mice = assay: analgesic activity, reaction time of mice on a hot plate; type: in vivo; settings: Mus musculus; male mice; oral; hot plate 55±0.5° C.; combined reaction time average at 30, 60 and 90 minutes
Procedure: The method determines the reaction time of mice dropped onto a hot plate maintained at 55±0.5° C. Six groups of male mice (5 mice/group) weighing between 20-30 grams are utilized. The initial reaction time of these mice is determined once, and the reaction time of each group is then averaged. The mice are then administered the vehicle and/or the compound to be tested by the oral, intraperitoneal or subcutaneous route. The average reaction time of each group is determined again at 30, 60 and 90 minutes after compound administration and is compared to controls. Reaction time is recorded as percent changes from control. All groups are averaged before and after treatment. A combined reaction time average (recorded as percent change of reaction time threshhold from controls) for all three periods is plotted against does on graph paper, and a curve is drawn. The ED50 is read from this curve.

## O=C(O)Cc1ccc2c(c1)sc1ccc(Cl)cc12 [8-chloro-dibenzothiophene-3-acetic acid]
[1]
  ED30: 1.8 mg/kg/day
mice
  ED50: 120 mg/kg
